Data set [1] is described as follows: pH of the solution upon dissolution. The format is physicochemical. The conditions noted are these: monosodium salt of compound I. From the text:
The compositions of the present invention are generally formulated using a carbon dioxide source. Preferred sources of carbon dioxide are carbon dioxide (gas, liquid or solid), carbonates and bicarbonates, and more preferably sodium carbonate and sodium bicarbonate, which can be incorporated into the formulation, such that an appropriate pH, e.g., about 6.2-8.5, is obtained upon dissolution. The native pH of the monosodium salt of compound I is approximately 5.4.
One formulation that is of particular interest is comprised of about 3-6 parts by weight, and preferably about 4.5 parts by weight, of compound I, or the pharmaceutically acceptable salt, stabilized form, prodrug or hydrate thereof, and 1 part by weight of sodium bicarbonate. Preferably the carbapenem is in the form of the monosodium salt. The pH which results upon dissolution of this formulation is approximately 6.5. Formulating the drug in this manner can extend the stability of the product in solution.
Another formulation that is of particular interest is comprised of about 4-10 parts by weight, and preferably about 6.7 parts by weight, of the compound of formula I, or the pharmaceutically acceptable salt, stabilized form, prodrug or hydrate thereof, and 1 part by weight sodium carbonate. Preferably the carbapenem is in the form of the monosodium salt. […]

The test system of the next data set is dehydropeptidase (DHP). Kind of data set: Susceptibility to attack by dehydropeptidase (DHP). The format is in vitro ADME. The conditions noted are these: compared with naturally occurring carbapenems. The text has this: The compound of formula I is of the broad class known as carbapenems. Naturally occurring carbapenems are susceptible to attack by a renal enzyme known as dehydropeptidase (DHP). This attack or degradation may reduce the efficacy of the carbapenem antibacterial agent. […] However, use of a DHP inhibitor is optional and is contemplated as being included in the present invention. Inhibitors of DHP and heir use with carbapenem antibacterial agents are disclosed in European Patent Applications No. 79102616.4, filed Jul. 24, 1979 (Patent No. 007 614); and No. 82107174.3, filed Aug. 9, 1982 (Publication No. 072 014)!.
The compound of the present invention may, where DHP inhibition is desired or necessary, be combined or used with the appropriate DHP inhibitor as described in the aforesaid patents and published application. The cited European Patent Application defines the procedure for determining DHP susceptibility of the present carbapenems and disclose suitable inhibitors, combination compositions and methods of treatment.

The format of data set [2] is physicochemical. The settings on record: 25° C. As to the method:
The final pH of the solution is shown below. Solution stability of this intravenous formulation was determined at 25° C. with the following results.

The text below walks through data of patent US5952323A, “Carbapenem antibiotic” (Merck & Co., Inc., priority 1998, dated 1999).

Where two headings read alike, the source gives them in different places.

On to `CC(O)C1C(=O)N2C(C(=O)O)=C(SC3CNC(C(=O)Nc4cccc(C(=O)O)c4)C3)C(C)C12` (stereo not shown) [Compound I], for which the “native pH” value in data set [1] is listed as “approximately 5.4”. The “susceptibility to attack by dehydropeptidase (DHP)” value in the data set with dehydropeptidase (DHP) is reported as “significantly less subject to such attack”. The “final pH” value was 7.4 in data set [2] (12 mg/mL (marked *)) and 7.3 in data set [2] (36 mg/mL). The k in data set [2] (12 mg/mL (marked *)) is 0.004994 h⁻¹; in data set [2] (36 mg/mL), 0.01044 h⁻¹. For the same compound, the entries for the “t 90%” value in data set [2] (12 mg/mL (marked *)) and in data set [2] (36 mg/mL) were 21.0 h and 7.3 h, respectively. Moreover, the “initial pH” value was 7.0 in data set [2] (12 mg/mL (marked *), intravenous formulation) and 6.7 in data set [2] (36 mg/mL, intravenous formulation with sodium bicarbonate 8.0 mg/mL, sodium chloride 4.0 mg/mL).
